Our source for the IC50 values is US7265130B2, “NPY Y5 antagonist” (Shionogi & Co., Ltd., priority 1999, dated 2007).

The target of test [1] is T1, human NPY Y5 receptor (Homo sapiens, UniProt Q15761).
T1 construct: expressed in transfected cells
T1 sequence (Q15761 1-445): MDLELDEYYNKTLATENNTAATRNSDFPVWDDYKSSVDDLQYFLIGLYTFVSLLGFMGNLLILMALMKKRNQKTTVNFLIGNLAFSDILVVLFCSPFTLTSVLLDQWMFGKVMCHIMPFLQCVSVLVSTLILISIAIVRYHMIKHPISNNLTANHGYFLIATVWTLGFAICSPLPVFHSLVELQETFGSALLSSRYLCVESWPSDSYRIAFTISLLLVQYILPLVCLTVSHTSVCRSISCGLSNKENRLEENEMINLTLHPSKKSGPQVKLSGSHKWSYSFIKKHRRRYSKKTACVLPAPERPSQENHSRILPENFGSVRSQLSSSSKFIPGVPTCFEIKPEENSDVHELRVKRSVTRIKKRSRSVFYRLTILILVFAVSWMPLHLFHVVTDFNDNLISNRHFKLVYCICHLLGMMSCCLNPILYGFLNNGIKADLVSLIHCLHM
Briefly: Affinity for NPY Y5 receptor ([125I] peptide YY binding, CHO cell membranes). To be noted: inhibition of specific [125I] peptide YY binding, membranes of CHO cells expressing NPY Y5 receptor. In outline: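 Membranes from CHO cells stably expressing human NPY Y5 receptor incubated with test compound and [125I] peptide YY (60 pM final) in HEPES-Hanks buffer with 0.1% BSA, pH 7.4, 25° C for 2 hours. Filter-bound radioactivity counted; non-specific binding with 200 nM peptide YY; IC50 against specific binding calculated.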

Test [2] addresses T1, human NPY Y5 receptor. Nature of the test: cAMP production inhibitory activity in CHO cells. Format: cell-based. Particulars: against 50 nM NPY inhibition of forskolin stimulated cAMP, CHO cells expressing human NPY Y5 receptor. In outline: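 CHO cells expressing human NPY Y5 receptor preincubated 20 min at 37 °C with 2.5 mM IBMX, then with compound for 5 min. Stimulated with 50 nM NPY plus 10 μM forskolin for 30 min. Reaction stopped with 1N HCl; supernatant cAMP measured by EIA.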

The target of a further test is T2, NPY Y1 receptor (Homo sapiens, UniProt P25929).
T2 construct: membranes prepared from Y1-expression cells (human neuroblastoma, SK-N-MC); endogenous in cells; host or cells: SK-N-MC human neuroblastoma cells (membranes)
T2 sequence (P25929 1-384): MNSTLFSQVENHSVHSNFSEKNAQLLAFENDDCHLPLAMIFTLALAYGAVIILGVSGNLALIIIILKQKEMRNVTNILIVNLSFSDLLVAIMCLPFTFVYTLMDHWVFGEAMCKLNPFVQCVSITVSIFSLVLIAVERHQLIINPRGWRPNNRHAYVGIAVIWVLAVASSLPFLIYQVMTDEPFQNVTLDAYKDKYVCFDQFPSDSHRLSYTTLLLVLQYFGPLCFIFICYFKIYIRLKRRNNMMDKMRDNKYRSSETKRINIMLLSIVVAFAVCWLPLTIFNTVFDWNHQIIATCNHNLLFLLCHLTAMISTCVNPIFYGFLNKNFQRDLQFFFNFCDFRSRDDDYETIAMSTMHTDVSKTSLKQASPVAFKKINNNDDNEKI
Nature of the test: Affinity for NPY Y1 receptor (membranes from SK-N-MC cells). Particulars: membranes from Y1-expression cells (human neuroblastoma, SK-N-MC); read-out: Binding IC50 for NPY Y1 receptor. The protocol: (§1) The membranes prepared from the above CHO cells expressing NPY Y5 receptor, the compound of the present invention and 30,000 cpm [^125I] peptide YY (60 pM of final concentration: Amersham) were incubated in the assay buffer (20 mM HEPES-Hanks buffer containing 0.1% bovine serum albumin, pH 7.4) at 25° C. for 2 hours, and then the mixture was filtered with a glassfilter GF/C treated with polyethyleneimine. After the glassfilter was washed with 50 mM Tris-HCl buffer (pH 7.4), the radioactivity on the filter was measured with a gamma counter. The non-specific binding was detected in the presence of 200 nM of peptide YY. The 50% inhibitory concentration of the test compound against the specific peptide YY binding (IC50 value) was calculated (Inui, A. et al. Endocrinology 131, 2090-2096 (1992)).
(§2) Using the membranes prepared from Y1-expression cells (human neuroblastoma, SK-N-MC) and the membranes prepared from Y2-expression cells (human neuroblastoma, SMS-KAN), the experiment was carried out in a similar way as Experiment 1 to determine the affinity for NPY Y1 receptor and NPY Y2 receptor.

The next test concerns the target T3, NPY Y2 receptor (Homo sapiens, UniProt P49146).
T3 construct: membranes prepared from Y2-expression cells (human neuroblastoma, SMS-KAN); endogenous in cells; host or cells: SMS-KAN human neuroblastoma cells (membranes)
T3 sequence (P49146 1-381): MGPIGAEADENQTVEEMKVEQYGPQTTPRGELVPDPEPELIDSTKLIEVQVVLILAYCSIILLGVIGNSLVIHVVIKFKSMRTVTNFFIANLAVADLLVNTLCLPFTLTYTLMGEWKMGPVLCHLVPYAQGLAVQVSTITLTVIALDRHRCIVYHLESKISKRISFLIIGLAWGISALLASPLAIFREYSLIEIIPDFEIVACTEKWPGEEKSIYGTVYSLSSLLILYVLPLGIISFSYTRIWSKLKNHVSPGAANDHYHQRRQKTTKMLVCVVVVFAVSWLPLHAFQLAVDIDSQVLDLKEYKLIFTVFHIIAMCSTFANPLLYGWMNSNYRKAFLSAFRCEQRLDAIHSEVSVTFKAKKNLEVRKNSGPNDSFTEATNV
Nature of the test: Affinity for NPY Y2 receptor (membranes from SMS-KAN cells). To be noted: membranes from Y2-expression cells (human neuroblastoma, SMS-KAN); read-out: Binding IC50 for NPY Y2 receptor. The procedure:
as §1, §2

On to `CC(C)(C)S(=O)(=O)NC1CCC(C(=O)Nc2ccc3oc(=O)ccc3c2)CC1` (stereo not drawn) [Ia-62], for which the 50% inhibitory concentration (IC50) on human NPY Y5 receptor [1] is 1.1 nM; at human NPY Y5 receptor [2], 29 nM; on NPY Y1 receptor it was not below 100000 nM; on NPY Y2 receptor, not below 100000 nM.
On to `CC(C)(C)S(=O)(=O)NC1CCC(C(=O)NCCSc2cc(C(F)(F)F)nc3ccccc23)CC1` (stereo not drawn) [Compound I-152], for which the IC50 on human NPY Y5 receptor [1] is 0.88 nM; against human NPY Y5 receptor [2], 46 nM; at NPY Y1 receptor it was not below 100000 nM; at NPY Y2 receptor, not below 100000 nM.
With `CC(C)(C)S(=O)(=O)NC1CCC(C(=O)Nc2ccc3c(c2)CCC3)CC1` (stereo not drawn) [Compound I-204], the IC50 on human NPY Y5 receptor [1] was 1 nM; on human NPY Y5 receptor [2], 6.3 nM; at NPY Y1 receptor, not below 100000 nM; at NPY Y2 receptor it was not below 100000 nM.
`C[C@@H]1CN(c2c(F)c(F)c(NC(=O)C3CCC(NS(=O)(=O)C(C)(C)C)CC3)c(F)c2F)C[C@H](C)O1` (stereo partly drawn) [Ia-30]: the IC50 on human NPY Y5 receptor [1] was 2.6 nM; on human NPY Y5 receptor [2], 25 nM; at NPY Y1 receptor, not below 100000 nM; on NPY Y2 receptor, not below 100000 nM.
With `CC(C)(C)S(=O)(=O)NC1CCC(C(=O)Nc2ccc(OC3CCOCC3)cc2)CC1` (stereo not drawn) [Ia-200], the half-maximal inhibitory concentration (IC50) on human NPY Y5 receptor [1] was 1.4 nM; against human NPY Y5 receptor [2], 18 nM; at NPY Y1 receptor it was not below 100000 nM; at NPY Y2 receptor, not below 100000 nM.
In the case of `CC(C)(C)S(=O)(=O)NC1CCC(C(=O)Nc2ccc(N3CC=CCC3)cc2)CC1` (stereo not drawn) [Compound I-59], the IC50 is 0.8 nM at human NPY Y5 receptor [1], 35 nM against human NPY Y5 receptor [2], not below 100000 nM on NPY Y1 receptor and not below 100000 nM at NPY Y2 receptor.
Regarding `CC(C)(C)S(=O)(=O)Nc1ccc(C(=O)Nc2ccc(N3CC=CC3)cc2)cc1` [Ia-139], the half-maximal inhibitory concentration (IC50) at human NPY Y5 receptor [1] was 1.9 nM; at human NPY Y5 receptor [2], 25 nM; at NPY Y1 receptor, not below 100000 nM; on NPY Y2 receptor, not below 100000 nM.
Take `CC(C)(C)S(=O)(=O)NC1CCC(C(=O)Nc2ccc(N3CCCCC3)cc2)CC1` (stereo not drawn) [Compound I-45]: the IC50 at human NPY Y5 receptor [1] was 1.2 nM; at human NPY Y5 receptor [2], 27.9 nM; on NPY Y1 receptor, not below 100000 nM; at NPY Y2 receptor, not below 100000 nM.
For `CCCCc1ccc(NC(=O)CCCNS(=O)(=O)C(C)(C)C)cc1` [Compound I-27], the 50% inhibitory concentration (IC50) on NPY Y1 receptor and on NPY Y2 receptor was not below 100000 nM throughout.
Regarding `CC(C)(C)S(=O)(=O)NC1CCC(C(=O)Nc2ccc(F)cc2)CC1` (stereo not drawn) [Compound I-48], the IC50 at NPY Y1 receptor and at NPY Y2 receptor was not below 100000 nM throughout.
For `CCCCc1ccc(C(=O)NC2CCC(NS(=O)(=O)C(C)(C)C)CC2)cc1` (stereo not drawn) [Compound I-32], the IC50 on NPY Y1 receptor and at NPY Y2 receptor was not below 100000 nM in each case.
For `COc1ccc(NC(=O)C2CCC(NS(=O)(=O)C(C)(C)C)CC2)cc1` (stereo not drawn) [Ia-16], the IC50 at human NPY Y5 receptor [1] was 0.1 nM; at NPY Y1 receptor, not below 100000 nM; on NPY Y2 receptor it was not below 100000 nM.
In the case of `CCCCOc1ccc(NC(=O)CCCCNS(=O)(=O)C(C)CC)cc1` (stereo not drawn) [Compound I-116], the half-inhibitory concentration (IC50) on human NPY Y5 receptor [1] turned out to be 1.2 nM; at human NPY Y5 receptor [2] it was 11 nM.
The matching figures for `CC(C)(C)S(=O)(=O)NC1CCC(C(=O)Nc2ccc(F)cc2F)CC1` (stereo not drawn) [Ia-135]: 8.2 nM and 49 nM.
`CCCCc1ccc(NC(=O)C23CCC(NS(=O)(=O)C(C)(C)C)(CC2)CC3)cc1` [Compound I-123]: the IC50 at human NPY Y5 receptor [1] was 1.8 nM; against human NPY Y5 receptor [2], 168 nM.
The matching figures for `Cn1nnnc1-c1ccc(NC(=O)[C@H]2CC[C@H](NS(=O)(=O)C(C)(C)C)CC2)cc1` [Ia-69]: 2.7 nM and 33 nM.
The like results for `CCCCOc1cccc(CONC(=O)C2CCC(NS(=O)(=O)C(C)(C)C)CC2)c1` (stereo not drawn) [Compound I-191] were, in that order, 1.1 nM and 11 nM.
The matching figures for `CC(C)(C)S(=O)(=O)NC1CCC(C(=O)Nc2ccc(-c3cccs3)cc2)CC1` (stereo not drawn) [Ia-202]: 0.37 nM and 3.4 nM.
As for `CCCCc1ccc(NC(=O)CCCCNS(=O)(=O)C(C)C)cc1` [Compound I-7], the results for the IC50 at human NPY Y5 receptor [1] and against human NPY Y5 receptor [2] were 3 nM and less than 10 nM, respectively.
The like results for `CC(C)(C)S(=O)(=O)NC1CCC(C(=O)Nc2nc(-c3cccc4ccccc34)cs2)CC1` (stereo not drawn) [Compound I-142] were, in that order, 0.49 nM and 28 nM.
